Test results from patent publication US8735443B2, “Method of treating diabetes-related vascular complications” (Kuwait University, priority 2008, dated 2014).

Assays:
[1] = test system: ICAM-1; test: Aortic mRNA expression by QRT-PCR, ICAM-1; assay type: in vivo, rat; details: GK rats, LA therapy
Protocol: An expression of a number of inflammatory markers, including IL-6 and ICAM-1, were measured in control, diabetic and LA-treated diabetic vessels. The results confirmed marked elevation in the vascular expression of both […] and ICAM-1 during diabetes, as shown in FIGS. 11A and 11B. […] Aortic expression of IL-6 is shown in FIG. 11A and aortic expression of intracellular adhesion molecule (ICAM-1) is shown in FIG. 11B. Both were determined using QRT-PCR based techniques.

[2] = test system: diabetic fibroblasts (DFs); test: LDH release assay (necrotic cell death) in fibroblasts; assay type: cell-based, rat; details: lipoic acid 500 μM, Nrf2-dependent
Description: To determine the effect of α-lipoic acid on isolated cells from normal and diabetic rats, primary rat fibroblasts were derived from dorsal skin biopsies performed on four diabetic Coto Kakizaki rats (DFs) and four age-matched (12-14 months) and sex-matched (female) Wistar control rats (CFs). After sterilization in povidine solution, the rat skin was washed in sterile water and rinsed in 70% ethanol in phosphate-buffered saline (PBS). The epidermis and dermis were separated following overnight incubation in 0.25% Trypsin/EDTA at 4° C. Samples were washed, diced and digested for thirty minutes at 37° C. in collagenase type I (250 U/ml) dissolved in Dulbecco's modified Eagle medium (DMEM; Invitrogen) containing penicillin (100 U/ml), 2 mM L-glutamine and 26 mM HEPES. After collagenase treatment, the cells were dislodged, centrifuged and resuspended in medium supplemented with 10% fetal bovine serum. The cells were grown under standard conditions, and the medium was changed every three to four days. Control and diabetic fibroblasts were grown under normo-glycemic conditions (5.5 mM glucose) and used in experiments at passage 3 to 5.
Fibroblasts were seeded at 1×10^4 cells/well on a 96-well plate. […] Quantification of cell viability was assessed using a Cell Counting Kit-8 (Dojindo, Kumamoto, Japan). […]

[3] = test system: caspase 3/7; test: Caspase 3/7 activity in aorta (APO-ONE assay); assay type: in vivo, rat; details: chronic LA treatment, GK rats
Protocol: For detection of caspase 3-like activity, protein was isolated and caspase activity was detected in resulting supernatant using an APO-ONE homogenous caspase 3/7 assay (Promega). With regard to subcellular fractionation and western blotting, aortic tissue nuclear extracts were prepared and protein (40 μg) was loaded in each well of […] polyacrylamide gel. Separated polypeptide was transferred to nitrocellulose membrane IBio-Rad) and probed with anti NFκB at a 1:2,000 […]. Chemiluminescent detection was performed by an ECL Western Blotting Detection Kit®.

SMILES: O=C(O)CCCCC1CCSS1 (stereo not drawn) [LA, alpha-lipoic acid]
- diabetic vascular proinflammatory phenotype, aortic expression of ICAM-1 [1]: partially reversed
- LDH release into cell culture media (necrotic cell death) in response to HP [2]: reduces cell death
- reduction of caspase 3/7 in diabetic arteries [3]: 48%
